Data on 14 compounds can be found in patent US5677328A, “Ethylamino carbazole melatonergic agents” (Bristol-Myers Squibb Company, priority 1996, dated 1997).

Test system in the first data set: not given
Assay: not given
Particulars: cited from earlier work.
On to `COc1ccc2[nH]cc(CCNC(C)=O)c2c1` [melatonin, N-acetyl-5-methoxytryptamine], for which the oral bioavailability result is “often low and variable”.

The target of the next data set is T1, human ML1a (Homo sapiens, UniProt P48039).
T1 construct: expressed in transfected cells; host or cells: COS-1 cells (transient, DEAE-dextran), membrane homogenate
T1 sequence (P48039 whole entry): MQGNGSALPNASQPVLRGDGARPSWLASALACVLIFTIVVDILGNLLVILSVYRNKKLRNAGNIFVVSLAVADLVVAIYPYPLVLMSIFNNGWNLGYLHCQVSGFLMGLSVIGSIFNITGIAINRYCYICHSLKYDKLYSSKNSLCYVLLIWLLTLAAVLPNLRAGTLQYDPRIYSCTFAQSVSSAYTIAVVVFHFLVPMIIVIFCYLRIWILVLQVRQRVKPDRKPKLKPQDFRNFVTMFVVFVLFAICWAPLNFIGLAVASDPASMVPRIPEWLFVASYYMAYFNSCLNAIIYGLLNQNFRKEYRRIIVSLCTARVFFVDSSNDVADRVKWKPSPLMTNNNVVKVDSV
Kind of data set: Measurement of Melatonergic Binding (human ML1a binding assay, 2-[125I]-iodomelatonin, COS-1 cell membranes). Particulars: 2-[125I]-iodomelatonin 100 pM, 37° C. for 1 hour. The protocol: Example 35 sets out the human ML1a binding assay used to test activity.
Measurement of Melatonergic Binding
(a) 50 mM Tris buffer containing 12.5mM MgCl2 and 2mM EDTA (pH 7.4 at 37° C.).
(b) Wash buffer: 20mM Tris base containing 2mM MgCl2 (pH 7.4 at room temperature).
(c) 6-Chloromelatonin (10^-5 M final concn.).
(d) 2-[^125 I]-iodomelatonin (100 pM final concn.). Source: NEN
2. Membrane preparation. The cDNA (human ML1A) was introduced into COS-1 cells by the DEAE-dextran method. Three days later, the media was removed, the plates washed with phosphate buffered saline, the cells removed using Hank's balanced salt solution and pelleted. The supernatant was discarded and the pellets frozen. For preparing membrane homogenates, pellets are thawed on ice, and resuspended in TME buffer, Tris base, MgCl2, EDTA (pH 7.4 at 37° C.), supplemented with aprotinin, leupeptin, and phenylmethlysulfonylfluoride. The cells were then homogenized using a dounce homogenizer, and centrifuged. The resulting pellet was resuspended with a dounce homogenizer in TME and frozen. On the day of assay, the small aliquot was thawed on ice and resuspended in TME buffer.
3. Incubation: 37° C. for 1 hour. Reaction is terminated by filtration.
The procedure was based on that disclosed in: Reppert, S. M., Weaver, D. R., and Ebisawa, R. (1994), Neuron, 13, 1177-1185 (1994).
In turn, `CCCC(=O)NCCn1c2ccccc2c2ccc(OC)cc21` [Example 15, N-[2-(2-Methoxy-9H-carbazol-9-yl)ethyl]butanamide] registered an IC50 of less than 100 nM.

With `COc1ccc2c3ccccc3n(CCNC(=O)C3CC3)c2c1` [Example 17, N-[2-(2-Methoxy-9H-carbazol-9-yl)ethyl]cyclopropanecarboxamide], the half-inhibitory concentration (IC50) fell in the range of 100 to 250 nM.

Regarding `COc1ccc2c3ccc(OC)cc3n(CCNC(=O)C3CC3)c2c1` [Example 20, N-[2-(2,7-Dimethoxy-9H-carbazol-9-yl)ethyl]cyclopropanecarboxamide], the IC50 is less than 100 nM.

`COc1ccc2c3ccc(OC)cc3n(CCNC(=O)CS(C)(=O)=O)c2c1` [Example 22, N-[2-(2,7-Dimethoxy-9H-carbazol-9-yl)ethyl]-2-(methanesulfonyl)acetamide] came in with an IC50 of no less than 250 nM.

For the compound `COc1ccc2c3ccc(OC)cc3n(CCCNC(=O)C(C)C)c2c1` [Example 11, N-[3-(2,7-Dimethoxy-9H-carbazol-9-yl)propyl]-2-methylpropanamide], the IC50 was in the range of 100 to 250 nM.

Compound `CCNC(=O)NCCn1c2cc(OC)ccc2c2ccc(OC)cc21` [Example 27, N-Ethyl-N'-[2-(2,7-dimethoxy-9H-carbazol-9-yl)ethyl]urea] yielded an IC50 of less than 100 nM.

Compound `CNC(=O)NCCn1c2cc(OC)ccc2c2ccc(OC)cc21` [Example 26, N-[2-(2,7-Dimethoxy-9H -carbazol-9-yl)ethyl]-N'-methylurea] had an IC50 of less than 100 nM.

`COc1ccc2c3ccc(OC)cc3n(CCCNC(C)=O)c2c1` [Example 8, N-[3-(2,7-Dimethoxy-9H-carbazol-9-yl)propyl]acetamide] gave an IC50 of less than 100 nM.

`CCC(=O)NCCCn1c2cc(OC)ccc2c2ccc(OC)cc21` [Example 9, N-[3-(2,7-Dimethoxy-9H-carbazol-9-yl)propyl]propanamide] returned an IC50 of less than 100 nM.

On to `CCCC(=O)NCCn1c2cc(OC)ccc2c2ccc(OC)cc21` [Example 18, N-[2-(2,7-Dimethoxy-9H-carbazol-9-yl)ethyl]butanamide], for which the IC50 lay in the range of 100 to 250 nM.

Turning to `CCCC(=O)NCCCn1c2cc(OC)ccc2c2ccc(OC)cc21` [Example 10, N-[3-(2,7-Dimethoxy-9H-carbazol-9-yl)propyl]butanamide], the concentration for half-maximal inhibition (IC50) is less than 100 nM.

Compound `COc1ccc2c3ccc(OC)cc3n(CCNC(=O)CSC)c2c1` [Example 21, N-[2-(2,7-Dimethoxy-9H-carbazol-9-yl)ethyl]methylthioacetamide] gave a concentration for half-maximal inhibition (IC50) of less than 100 nM.

Consider `COc1ccc2c3ccc(OC)cc3n(CCNC(=O)C(C)C)c2c1` [Example 19, N-[2-(2,7-Dimethoxy-9H-carbazol-9-yl)ethyl]-2-methylpropanamide], for which the IC50 is 100 to 250 nM.

The test system of another data set is circadian rhythms in rats.
Assay: not given
Particulars: exogenous melatonin administration, Cassone et al. 1986; cited from earlier work.
In the case of `COc1ccc2[nH]cc(CCNC(C)=O)c2c1` [melatonin, N-acetyl-5-methoxytryptamine], the “synchronization of circadian rhythms” value is listed as “found to synchronize circadian rhythms in rats”.
